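Where inhibition never reached the appropriate level, the endpoint shown equals the highest concentration tested. Otherwise, values were interpolated linearly from a five-concentration, 48-hour dose response in 96-well plates. GI50 is the concentration that inhibits growth by half. TGI marks complete inhibition of growth.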
Key:
Assay in all cases: NCI-60 cell line screen, 48 h; in the data active = GI50 below about 0.43 µM; inactive = the rest
[1] = test system: RXF 393 renal
[2] = test system: OVCAR-4 ovarian
[3] = test system: SF-295 CNS
[4] = test system: SN12C renal
[5] = test system: HL-60(TB) leukemia
[6] = test system: NCI-H460 lung
[7] = test system: SF-539 CNS
[8] = test system: ACHN renal
[9] = test system: HCC-2998 colon
[10] = test system: HT29 colon
[11] = test system: COLO 205 colon
[12] = test system: NCI-H522 lung
[13] = test system: 786-0 renal
[14] = test system: SNB-75 CNS
[15] = test system: IGROV1 ovarian
[16] = test system: DU-145 prostate
[17] = test system: OVCAR-5 ovarian
[18] = test system: K-562 leukemia
[19] = test system: A549 NSCLC
[20] = test system: HCT-15 colon
[21] = test system: MCF7 breast
[22] = test system: MALME-3M melanoma
[23] = test system: SR leukemia
[24] = test system: PC-3 prostate
[25] = test system: T-47D breast
[26] = test system: A498 renal
[27] = test system: HOP-92 NSCLC
[28] = test system: SK-MEL-2 melanoma
[29] = test system: SW-620 colon
[30] = test system: HCT-116 colon
[31] = test system: SNB-19 CNS
[32] = test system: EKVX NSCLC
[33] = test system: TK-10 renal
[34] = test system: CCRF-CEM leukemia
[35] = test system: UACC-257 melanoma
[36] = test system: HS 578T breast
[37] = test system: SK-MEL-28 melanoma
[38] = test system: U251 CNS
[39] = test system: OVCAR-3 ovarian
[40] = test system: HOP-62 NSCLC
[41] = test system: SK-MEL-5 melanoma
[42] = test system: OVCAR-8 ovarian
[43] = test system: BT-549 breast
[44] = test system: M14 melanoma
[45] = test system: SK-OV-3 ovarian
[46] = test system: MDA-MB-231 breast
[47] = test system: NCI-H23 lung
[48] = test system: UO-31 renal
[49] = test system: NCI/ADR-RES ovarian
[50] = test system: KM12 colon
[51] = test system: SF-268 CNS
[52] = test system: UACC-62 melanoma
[53] = test system: RPMI-8226 leukemia
[54] = test system: LOX IMVI melanoma
[55] = test system: MOLT-4 leukemia

C/C(=C\c1csc(C)n1)[C@@H]1C[C@@H]2O[C@]2(C)CCC[C@H](C)[C@H](O)[C@@H](C)C(=O)C(C)(C)[C@@H](O)CC(=O)O1
274 nM: TGI [18]
33.7 µM: TGI [28]
< 0.0001 µM: TGI [3] | TGI [9] | TGI [10] | TGI [14] | TGI [23]
4.18 nM: TGI [1]
44.8 µM: TGI [33]
26.3 nM: TGI [27]
< 0.1 nM: TGI [5] | TGI [7] | TGI [11] | TGI [12]
116 nM: TGI [26]
inactive: GI50 [2] 60.1 µM
> 100 µM: TGI [2] | TGI [4] | TGI [6] | TGI [8] | TGI [13] | TGI [15] | TGI [17] | TGI [19] | TGI [22] | TGI [24] | TGI [25] | TGI [30] | TGI [31] | TGI [32]
4.47 nM: TGI [20]
16.1 µM: TGI [29]
11.2 nM: TGI [21]
0.139 nM: TGI [16]

COC(=O)CC[C@H](Cc1ccccc1)NC(=O)c1csc([C@@H](C[C@H](C(C)C)N(C)C(=O)[C@@H](NC(=O)[C@H]2CCCCN2C)C(C)C)OC(C)=O)n1
> 25000 nM: TGI [1] | TGI [16] | TGI [18] | TGI [20] | TGI [21] | TGI [27]
10.5 µM: TGI [55]
> 8.5 µM: TGI [23]
> 25 µM: TGI [2] | TGI [34] | TGI [35] | TGI [36] | TGI [3] | TGI [37] | TGI [38] | TGI [4] | TGI [39] | TGI [40] | TGI [42] | TGI [6] | TGI [9] | TGI [10] | TGI [13] | TGI [44] | TGI [14] | TGI [45] | TGI [46] | TGI [15] | TGI [47] | TGI [17] | TGI [48] | TGI [49] | TGI [50] | TGI [51] | TGI [19] | TGI [52] | TGI [22] | TGI [24] | TGI [53] | TGI [29] | TGI [30] | TGI [54] | TGI [32] | TGI [33]
inactive: GI50 [35] > 25 µM | GI50 [37] > 25 µM | GI50 [22] 7.53 µM | GI50 [27] 4.93 µM | GI50 [33] > 25 µM
active: GI50 [1] < 2.5 nM | GI50 [2] 0.023 µM | GI50 [34] 2.89 nM | GI50 [36] < 2.5 nM | GI50 [3] < 2.5 nM | GI50 [38] < 2.5 nM | GI50 [4] < 2.5 nM | GI50 [39] < 2.5 nM | GI50 [40] < 2.5 nM | GI50 [41] < 2.5 nM | GI50 [42] 3.18 nM | GI50 [6] < 2.5 nM | GI50 [43] 2.75 nM | GI50 [8] 13 nM | GI50 [9] 3.86 nM | GI50 [10] < 2.5 nM | GI50 [13] < 2.5 nM | GI50 [44] < 2.5 nM | GI50 [14] < 2.5 nM | GI50 [45] < 2.5 nM | GI50 [46] 5.7 nM | GI50 [15] 3.31 nM | GI50 [16] < 2.5 nM | GI50 [47] 5.15 nM | GI50 [17] 8.16 nM | GI50 [18] < 2.5 nM | GI50 [48] 16.5 nM | GI50 [49] 71.4 nM | GI50 [50] < 2.5 nM | GI50 [51] 7.85 nM | GI50 [19] 7.44 nM | GI50 [52] < 2.5 nM | GI50 [20] 6.85 nM | GI50 [21] < 2.5 nM | GI50 [23] < 2.5 nM | GI50 [24] < 2.5 nM | GI50 [53] < 2.5 nM | GI50 [26] 4.06 nM | GI50 [29] < 2.5 nM | GI50 [30] < 2.5 nM | GI50 [54] < 2.5 nM | GI50 [32] 8.01 nM | GI50 [55] < 2.5 nM
137 nM: TGI [43]
21.4 µM: TGI [8]
98.4 nM: TGI [41]
